# Reference: US6592893B1, “Transdermal patch and topical compositions comprising propylnorapomorphine” (priority 1998, dated 2003)
# How the values were obtained:
# [1] = i.v., s.c., i.m., rectal, sublingual or intranasal route; cited from earlier work
# [2] = continuous subcutaneous infusion, 2-5 mg/hour; cited from earlier work
# [3] = activity compared with APO; conditions: greater than that of APO
# Procedure: For this reason, when said compounds are given at suitable doses over 24 hours, effects which are rather more beneficial than those of APO are obtained.
# [4] = toxicity compared with APO
# [5] = half-life compared with APO
# [6] = in vitro cell permeation study with guinea-pig skin (Type III patch); assay type: in vitro ADME
# Procedure: Then, three particular non-limiting examples of the pharmaceutical composition used to form the matrix of a Type III patch will be illustrated (FIG. 3). The Type III patch, containing a matrix made up of these three types of formulations, will then be “tested” on guinea-pig skin, to analyse the permeation of the active principle, both with regard to the accumulation of active principle over 48 hours (FIG. 4) and with regard to the flow (also over 48 hours, FIG. 5).
# [7] = accelerated stability test of the patch formulation; assay type: physicochemical; conditions: with antioxidant (sodium metabisulphite), 15 days at 40° C. and 75% RH
Compound,latent period (attack) [1],local side effect at the infusion site [2],activity relative to APO [3] [times],toxicity relative to APO [4],half-life relative to APO [5],skin permeability [6],chemical stability in the formulation of the patch [7]
CN1CCc2cccc3c2[C@H]1Cc1ccc(O)c(O)c1-3 [Apomorphine],about 15 ′,subcutaneous granulomas form around the infusion site,–,–,–,–,–
"CCCN1CCc2cccc3c2[C@@H]1Cc1ccc(O)c(O)c1-3.Cl [Compound (2), S(+)-propylnorapomorphine hydrochloride]",–,–,10,lower,greater,–,–
"CCCN1CCc2cccc3c2[C@H]1Cc1ccc(O)c(O)c1-3.Cl [Compound (1), R(−)-propylnorapomorphine hydrochloride]",–,–,10,lower,greater,sufficient,demonstrated
